System: rumen microbiota
Experiment: Gas Production Test, in vitro rumen fermentation model (Example 1)
Assay type: cell-based
Settings: for cumulative gas production after 72 hours (comparison): isonitrogenous, 72 hours in vitro incubation, against blank and other NPN sources; for lag period of cumulative gas production: buffered rumen fluid, 39° C.; for part still unused by the rumen microbes after 24 hours: based on the cumulative gas production profiles
Protocol: The in vitro model used to simulate rumen digestion and utilization of the products is the Gas Production Test protocol, adapted for protein digestibility, as described in more detail in the following paragraph.
Approximately 1 liter of rumen fluid was collected from two different rumen-fistulated animals in the morning. Rumen fluid was strained through a cheesecloth, kept at 39° C. under CO2 and then diluted 1:19 with a nitrogen-free buffer and mineral solution containing 10.03 g NaHCO3, 1.43 g Na2HPO4, 1.55 g KH2PO4, 0.15 g MgSO4·7H2O, 0.52 g Na2S, 0.017 g CaCl2·2H2O, 0.015 g MnCl2·4H2O, 0.002 g […], 0.012 g FeCl3·6H2O and 0.125 mg resazurin per liter.
To ensure the rumen fluid was depleted of free nitrogen and to ensure nitrogen would be the limiting factor for the microbial growth at the start of the experiment, the buffered rumen fluid was pre-incubated for 4 hours at 39° C. with a carbohydrate overload of glucose, xylose and soluble starch, each at 3.33 g/l. During this pre-incubation, all nitrogen available in the rumen fluid would be incorporated into bacterial protein and other bacterial nitrogen-containing components.
Each product was weighed into different glass bottles on an isonitrogenous base, providing 15 mg N per flask. Then, 60 ml of the pre-incubated buffered rumen fluid was added, under continuous flushing with CO2. Flasks were closed with rubber stoppers and placed in a shaking water bath with 50 movements per minute at 39° C. to start the incubation period. The gas production of each flask was recorded continuously for 72 hours using a fully automated system. All test products including a blank (i.e. no product added to the flask of rumen fluid) were tested in one run in triplicate.
The cumulative gas production was measured continuously for 72 hours.

[1] = 15 mg N per flask, 72 hours incubation

Row | SMILES | cumulative gas production after 72 hours (comparison) | time after which gas production stopped / maximum cumulative gas production (end level) was reached [1] | time of highest (peak) gas production [1] | lag period of cumulative gas production [1] | gas production rate from 20 to 50 hours (20 to 50 hours of incubation) | part still unused by the rumen microbes after 24 hours
1 | O=c1[nH]c(=O)[nH]c(=O)[nH]1 [cyanuric acid, Cyanuric acid] | not significantly different | – | – | – | – | –
2 | NC(=O)NC(=O)NC(N)=O [Triuret] | – | 60 h | 20 h | 9 h | approximately 4 ml/hour | approximately 60%
3 | NC(=O)NC(N)=O [Biuret] | – | 40 h | – | approximately 5 hours | – | approximately 60%
4 | Nc1nc(=O)[nH]c(=O)[nH]1 [ammelide, Ammelide] | not significantly different | – | – | – | – | –
